Laboratory results reported in PubChem BioAssay (NCI).
Where “and” joins values, the source holds several entries; their conditions need not be identical. Identical values can stand only once.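 Grown in 96-well plates, cells were treated for 48 hours with each compound at five concentrations. Insufficient inhibition: endpoint recorded as highest concentration tested. GI50 is the concentration that inhibits growth by half. TGI: total growth inhibition.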

Key:
Assay in all cases: DTP human tumour cell line panel, 48 h
786-0 renal = system: 786-0 renal
CCRF-CEM leukemia = system: CCRF-CEM leukemia
HS 578T breast = system: HS 578T breast
IGROV1 ovarian = system: IGROV1 ovarian
KM12 colon = system: KM12 colon
NCI-H226 lung = system: NCI-H226 lung
OVCAR-8 ovarian = system: OVCAR-8 ovarian
SN12C renal = system: SN12C renal
SNB-75 CNS = system: SNB-75 CNS
UO-31 renal = system: UO-31 renal

| SMILES | GI50 (786-0 renal) | TGI (786-0 renal) | GI50 (CCRF-CEM leukemia) | TGI (CCRF-CEM leukemia) | GI50 (HS 578T breast) | TGI (HS 578T breast) | GI50 (IGROV1 ovarian) | TGI (IGROV1 ovarian) | GI50 (KM12 colon) | TGI (KM12 colon) | GI50 (NCI-H226 lung) | TGI (NCI-H226 lung) | GI50 (OVCAR-8 ovarian) | TGI (OVCAR-8 ovarian) | GI50 (SN12C renal) | TGI (SN12C renal) | GI50 (SNB-75 CNS) | TGI (SNB-75 CNS) | GI50 (UO-31 renal) | TGI (UO-31 renal) |
| --- | --- | --- | --- | --- | --- | --- | --- | --- | --- | --- | --- | --- | --- | --- | --- | --- | --- | --- | --- | --- |
| O=c1[nH]c2ccccc2n1C1CCNCC1 | > 100 µM | > 100 µM | > 100 µM | > 100 µM | > 100 µM | > 100 µM | > 100 µM | > 100 µM | > 100 µM | > 100 µM | > 100 µM | > 100 µM | > 100 µM | > 100 µM | > 100 µM | > 100 µM | > 100 µM | > 100 µM | > 100 µM | > 100 µM |
| COc1ccc(C2=NN(C(N)=S)C(c3ccc4c(c3)OCO4)C2)cc1 (configuration not stated) | 3.8 µM | > 100 µM | 2.5 µM | 8.18 µM | 2.82 µM | 7.09 µM | 2.42 µM | 6.8 µM | 2.27 µM | 5.19 µM | 2.49 µM | 6.84 µM | 3.29 µM | 22.9 µM | 3.37 µM | > 100 µM | 2.75 µM | 8.51 µM | 1.91 µM | 7.99 µM |
| CC(=O)/C(=C\c1ccc(Cl)cc1)c1ccccc1 | 0.128 µM | > 100 µM | 0.0534 µM | > 100 µM | 0.0832 µM | > 100 µM | 0.344 µM | > 100 µM | 0.054 µM | > 100 µM | 2.3 µM | > 90.1 µM | 0.304 µM | > 100 µM | 0.541 µM | > 100 µM | 0.0691 µM | > 100 µM | 1.02 µM | > 57.9 µM |
| N#CC1=C(N)Oc2c(sc3c(Br)cccc23)C1c1ccc([N+](=O)[O-])cc1 (configuration not stated) | 0.158 µM | 11.9 µM | 0.121 µM | 9.89 µM | 0.0774 µM | 16.4 µM | 0.33 µM | 18.4 µM | 0.0997 µM | 9.36 µM | 0.368 µM | 15.6 µM | 0.227 µM | 12.2 µM | 1 µM | 13.1 µM | 0.0595 µM | 8.41 µM | 0.126 µM | 14.5 µM |
| CC1CCCCCC(=O)c2c(O)cc(O)cc2CC(=O)O1 (configuration not stated) |  | > 100 µM |  | > 100 µM |  | > 100 µM |  | > 100 µM |  | > 100 µM |  | > 100 µM |  | > 100 µM |  | > 100 µM |  | > 100 µM |  | > 100 µM |
| Cc1c(Cl)cccc1C(=O)Nc1nc2c(s1)CN(C(=O)Nc1cccc(C(F)(F)F)c1)CC2 | 0.254 µM | > 25.3 µM | 0.194 µM | > 50 µM | 0.163 µM | > 50 µM | 0.29 µM | > 50 µM | 0.174 µM | > 21.7 µM | 0.213 µM | 7.65 µM | 0.277 µM | > 50 µM | 0.334 µM | > 50 µM | 0.104 µM | 3.52 µM | 0.508 µM | > 50 µM |
| CC(=O)OCC1C(=O)OCC1C(=O)N1Cc2cc3ccccc3nc2C1 (configuration not stated) |  | 3.84 µM |  | 3.79 µM |  | > 86.5 µM |  | 24 µM |  | 30.4 µM |  | 18.8 µM |  | 11.5 µM |  | 14.4 µM |  | 14.9 µM |  | 8.15 µM |
| N#CCCNc1nonc1-c1nc2ccccc2n1CC(=O)c1ccc(N)cc1 | 0.0417 µM | > 100 µM | 0.029 µM | > 100 µM | 0.0192 µM | > 100 µM | 0.0356 µM | > 100 µM | < 0.0118 µM | 1.28 µM | 0.098 µM | > 100 µM | 0.0354 µM | > 100 µM | 0.0447 µM | > 100 µM | 0.0232 µM | > 73 µM | 0.282 µM | > 100 µM |
| O=C(N/N=C/c1ccc(Cl)cc1)c1ccc(NC(=O)c2ccccn2)cc1 | 20.7 µM | 59.6 µM | > 100 µM | > 100 µM | 21.1 µM | > 100 µM | 38.1 µM | > 100 µM | 31 µM | > 100 µM | 24.5 µM | > 100 µM | 35.7 µM | > 100 µM | 18.9 µM | 55.4 µM | 5.52 µM | 24.9 µM | 11.2 µM | 38.2 µM |
| COc1ccc2c(c1)[C@@H](NC(C)=O)CCc1cc(OC)c(OC)c(OC)c1-2 |  | > 100 µM |  | > 100 µM |  | > 100 µM |  | > 100 µM |  | 0.039 µM |  | > 16.3 µM |  | 1.27 µM |  | > 100 µM |  | 12.9 µM |  | > 100 µM |
| O=C(NCc1cn(Cc2cccc(Oc3ccccc3)c2)nn1)c1cccnc1Nc1ccc(F)cc1 | 23.2 µM | > 100 µM | > 100 µM | > 100 µM | 30.9 µM | > 100 µM | 30.7 µM | > 100 µM | 5.61 µM | > 100 µM | 38.6 µM | > 100 µM | 7.44 µM | > 100 µM | 52.6 µM | > 100 µM | 3.81 µM | 21.3 µM | 86.3 µM | > 100 µM |
| C[N+]1([O-])C2CCC1CC(OC(=O)C(CO)c1ccccc1)C2 (configuration not stated) |  | > 100 µM |  | > 100 µM |  | > 100 µM |  | > 100 µM |  | > 100 µM |  | > 100 µM |  | > 100 µM |  | > 100 µM |  | > 100 µM |  | > 100 µM |
| COC(=O)c1c2c(c(C)[n+]([O-])c1C)C(=O)C(NCc1ccc(OC)cc1)=CC2=O | 3.15 µM | 18.8 µM | 2.86 µM | 12.8 µM | 3.81 µM | 36.6 µM | 1.5 µM | 3.45 µM | 2.19 µM | 8.68 µM | 3.45 µM | 13.5 µM | 2.78 µM | > 100 µM | 1.62 µM | 3.65 µM | 3.5 µM | 14.3 µM | 2.48 µM | 10 µM |
| CC(C)=CCC/C(C)=C/CC/C(C)=C/CSC[C@H](NC(=O)CCCCCN1CCN(C)CC1)C(=O)NC1CCCCCC1 | 1.77 µM | 3.19 µM | 2.35 µM | 7.07 µM | 1.95 µM | 4.53 µM | 2.36 µM | 5.31 µM | 1.97 µM | 3.86 µM | 11.6 µM | 38.4 µM | 3.33 µM | 12.2 µM | 2.05 µM | 4.51 µM | 1.53 µM | 4.22 µM | 1.58 µM | 3.22 µM |
| CC(C)=CC[C@@H]1CC2(CC=C(C)C)C(=O)C(OC3(C(=O)c4ccccc4)C(=O)C4(CC=C(C)C)C[C@@H](CC=C(C)C)C(C)(C)C(CC=C(C)C)(C4=O)C3=O)(C(=O)c3ccccc3)C(=O)C(CC=C(C)C)(C2=O)C1(C)C (some centres not stated) | 0.963 µM | 2.61 µM | 1.64 µM | 5.52 µM | 1.6 µM | 4.67 µM | 1.63 µM | 7 µM | 1.65 µM | 6.13 µM | 1.34 µM | 3.9 µM | 1.7 µM | 6.05 µM | 1.54 µM | 5.67 µM | 1.11 µM | 5.62 µM | 1.28 µM | 4.82 µM |
| COc1ccc(-c2csc3c2-n2cccc2C3=O)cc1 | 0.0497 µM | > 100 µM | 0.0299 µM | > 100 µM | 0.211 µM and 0.0224 µM | 0.095 µM | 0.0229 µM | > 88.5 µM | 0.0133 µM |  | 0.0174 µM |  | 0.068 µM | > 100 µM | 0.0681 µM | > 100 µM |  | 0.434 µM | 0.049 µM | > 44.2 µM |
| O=c1c2ccccc2nc(-c2cccc([N+](=O)[O-])c2)n1O |  | > 100 µM |  | > 38.2 µM |  | > 100 µM |  | > 100 µM |  | > 100 µM |  | > 100 µM |  | 63.9 µM |  | > 100 µM |  | > 100 µM |  | > 100 µM |
| O=C1C=C(Nc2ccccc2)c2ccccc2C1=O | 5.17 µM | 18.9 µM | 3.54 µM | 14.7 µM | 2.57 µM | 6.32 µM | 2.78 µM | 7.31 µM | 2.94 µM | 9.17 µM | 1.93 µM | 4.21 µM | 2.71 µM | 12.8 µM | 1.62 µM | 3.11 µM | 1.32 µM | 2.67 µM | 1.71 µM | 4.48 µM |
| C[C@@H]1CN2[C@H]3[C@@H]1CC[C@]31CCC(=O)O[C@]1(C)[C@H]1CC[C@H]3CCC=C3[C@@H]12 | > 30 µM | > 30 µM | > 30 µM | > 30 µM | > 30 µM | > 30 µM | > 30 µM | > 30 µM | > 30 µM | > 30 µM | > 30 µM | > 30 µM | > 30 µM | > 30 µM | > 30 µM | > 30 µM | > 30 µM | > 30 µM | > 30 µM | > 30 µM |
| CC1=C(CCCOC(=O)[C@H](N)CC(C)C)C2=C(C)C3(CC3)[C@@](C)(O)C(=O)C2=C1 | 2.84 µM | 11.4 µM | 22.9 µM | > 100 µM | 5.3 µM | 43.8 µM | 0.471 µM | 6.19 µM | 7.66 µM | > 100 µM | 1.89 µM | 6.95 µM | 2.13 µM | > 33.3 µM | 2.6 µM | > 100 µM | 1.34 µM | 3.05 µM | 1.42 µM | 4.32 µM |
